Assay results: patent publication US8283368B2, “Selective ligands for the dopamine 3 (D3) receptor and methods of using the same” (The Regents of the University of Michigan, priority 2008, dated 2012)
Entries after “also recorded” stand apart in the source; their conditions may differ. Like-named read-outs stand apart in the source and are kept apart here.

Columns and labels:
D2 receptor [1] = target: T1, D2 receptor (Rattus norvegicus, UniProt P61169); test: In vivo hypothermia assay in rats (D2 agonist activity); set-up: compounds 5, 6, and 12 in yawning and hypothermia assays in rats; from tissue; host or cells: living rats (Harlan), core body temperature read-out; details: for in vivo functional activity at the D2 receptor: concluded from hypothermia in rats; for induction of hypothermia / changes in body temperature: rats, s.c.
T1 sequence (P61169 whole entry): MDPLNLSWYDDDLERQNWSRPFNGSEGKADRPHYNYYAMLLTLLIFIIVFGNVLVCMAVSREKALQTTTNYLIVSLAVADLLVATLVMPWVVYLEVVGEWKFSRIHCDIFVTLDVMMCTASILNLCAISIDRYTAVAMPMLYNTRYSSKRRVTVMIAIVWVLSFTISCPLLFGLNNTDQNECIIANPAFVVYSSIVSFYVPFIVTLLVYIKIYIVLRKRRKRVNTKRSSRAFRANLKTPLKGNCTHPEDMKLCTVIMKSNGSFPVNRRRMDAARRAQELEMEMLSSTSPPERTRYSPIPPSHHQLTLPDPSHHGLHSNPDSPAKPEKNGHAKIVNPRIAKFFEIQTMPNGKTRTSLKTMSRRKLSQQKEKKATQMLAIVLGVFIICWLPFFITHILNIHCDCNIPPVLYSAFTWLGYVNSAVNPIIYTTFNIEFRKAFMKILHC
Protocol: Recently, in vivo functional assays for the D3 and D2 receptors have been validated. (24,25). […] By employing these validated assays, compounds 5, 6, and 12 were evaluated for their in vivo functional activity at the D3 and D2 receptors.
(§1) Rats were purchased from Harlan (Indianapolis, Ind.) and housed three to a cage for yawning studies, and one to a cage for hypothermia studies. […] Yawning studies were performed as previously described (24,25), with yawning defined as a prolonged (about 1 second), wide opening of the mouth followed by a rapid closure. […] Yawning was recorded for 30 minutes after each injection. […] Yawns and changes in core body temperature are presented as the mean±standard error of the mean (SEM) with 8 (yawning) or 6 (hypothermia) rats per group.

[2] = target: D1-like dopamine receptors; test: [3H]SCH 23390 binding assay for D1-like dopamine receptors, rat brain membranes; details: single-site model, read-out: Ki ± SEM D1-like [3H]SCH23390
Protocol: (§2) All other Ki values are based on a single-site model.
(§3) Determination of D3 dopamine receptor affinity and selectivity were performed in membranes prepared from the brains of adult, male Sprague-Dawley rats (Harlan Sprague-Dawley, Indianapolis, Ind.). All compounds were dissolved in 100% ethanol at a concentration of 5 mM.

D2 receptor [3] = target: T1, D2 receptor; test: [3H]Spiperone binding assay for D2-like receptors, rat caudate-putamen membranes; set-up: from tissue; host or cells: rat caudate-putamen membranes; details: for Ki: rat brain
Protocol: as §2, §3
[^3H]Spiperone binding assays. […] Assays were performed using membranes prepared from rat caudate-putamen, which predominantly express the D2 subtype of D2-like receptors, and the final membrane homogenate concentration was 1.5 mg o.w.w./ml. The assay buffer was 50 mM Tris-HCl, 5 mM KCl, 2 mM MgCl2, and 2 mM CaCl2, pH 7.4 at 23° C.; the concentration of [^3H]spiperone (24 Ci/mmol; Amersham) was 0.2 nM; and the incubation time was 90 minutes at 23° C. Nonspecific binding was defined in the presence of 1 μM (+)-butaclamol.

D3 receptor = target: T2, D3 receptor (Rattus norvegicus, UniProt P19020); test: [3H]PD 128907 binding assay for D3 receptors, rat ventral striatum membranes; details: for Selectivity D1-like/D3 / Selectivity D2-like/D3: ratio of Ki values, Table 1; for less potent than compound 6 to the D3 receptor: Ki compared with compound 6
T2 construct: membranes prepared from the brains of adult, male Sprague-Dawley rats; from tissue; host or cells: rat ventral striatum (nucleus accumbens and olfactory tubercles) membranes
T2 sequence (P19020 whole entry): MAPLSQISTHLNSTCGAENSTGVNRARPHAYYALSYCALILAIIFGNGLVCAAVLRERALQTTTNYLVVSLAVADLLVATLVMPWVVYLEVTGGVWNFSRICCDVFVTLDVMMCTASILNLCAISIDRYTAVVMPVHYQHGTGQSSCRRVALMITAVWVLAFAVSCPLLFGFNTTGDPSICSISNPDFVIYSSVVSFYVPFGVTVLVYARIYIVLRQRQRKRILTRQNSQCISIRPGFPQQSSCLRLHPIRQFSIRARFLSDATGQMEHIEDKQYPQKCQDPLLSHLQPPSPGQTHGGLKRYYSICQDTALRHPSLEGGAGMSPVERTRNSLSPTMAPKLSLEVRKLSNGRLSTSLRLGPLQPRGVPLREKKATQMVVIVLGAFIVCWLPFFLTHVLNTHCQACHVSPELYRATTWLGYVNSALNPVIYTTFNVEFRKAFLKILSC
Protocol: as §2, §3
Rat ventral striatum (nucleus accumbens and olfactory tubercles) was prepared in assay buffer (50 mM Tris, 1 mM EDTA; pH 7.4 at 23° C.) to yield a final concentration of 10 mg original wet weight (o.w.w.)/ml. […] Nonspecific binding was defined by 1 μM spiperone. Assay tubes were incubated at 23° C. for 3 hours. The reaction was terminated by rapid vacuum filtration.

[4] = background statement on known compounds; cited from earlier work
Aqueous solubility = assay type: physicochemical
D2 receptor [5] = target: T1, D2 receptor; test: Alteration of pramipexole induced hypothermia in rats; assay type: in vivo; set-up: compounds 5, 6, and 12 in yawning and hypothermia assays in rats; from tissue; host or cells: living rats (Harlan), core body temperature read-out; details: rats pretreated with 10.0 or 32.0 mg/kg
Protocol: as §1

[6] = single-site model, read-out: Ki ± SEM D2 [3H]Spiperone
[7] = 2-site fit, high affinity component, read-out: Ki ± SEM D2 [3H]Spiperone, high affinity component (h)
[8] = 2-site fit, low affinity component, read-out: Ki ± SEM D2 [3H]Spiperone, low affinity component (1)
[9] = rat brain, single-site model, mean±SEM of three to five determinations, read-out: Ki ± SEM D3 [3H]PD128907

Row | Structure (SMILES) | in vivo functional activity at the D2 receptor (D2 receptor [1]) | induction of hypothermia / changes in body temperature (D2 receptor [1]) | Ki [2] | Ki (D2 receptor [3]; [6]) | Selectivity D1-like/D3 (D3 receptor) | Selectivity D2-like/D3 (D3 receptor) | aqueous solubility (Aqueous solubility) | Ki (D3 receptor; [9]) | other results
1 | CCCN[C@H]1CCc2nc(N)sc2C1 [Compound 1, pramipexole, reference compound] | D2 agonist at higher doses | induction of hypothermia occurring at higher doses | > 100000 nM | – | – | – | – | – | –
2 | COc1ccc2c(c1)CCC1CN(CCC3CCC(NC(=O)c4ccc5ccccc5c4)CC3)CCN21 (centres unmarked) [Compound 4, reference compound] | – | – | > 50000 nM | > 10000 nM | >5000 | >1000 | – | – | Ki (D3 receptor): 5.7 ± 0.4 nM; aqueous solubility, known compounds [4]: poor aqueous solubility
3 | CCCN(CCCCNC(=O)c1ccc2ccccc2c1)[C@H]1CCc2nc(N)sc2C1 [Compound 5, (S)—N-(4-((2-amino-4,5,6,7-tetrahydrobenzo[d]thiazol-6-yl)(propyl)amino)butyl)-2-naphthamide] | full agonist at the D3 and D2 receptors in vivo | hypothermia was induced by compound 5 at higher doses | – | – | – | – | good aqueous solubility | 0.043 ± 0.006 nM | Ki (D2 receptor [3]; [7]): 2.7 ± 0.4 nM; Ki (D2 receptor [3]; [8]): 6700 ± 1500 nM
4 | CCCN(CC[C@H]1CC[C@H](NC(=O)c2ccc3ccccc3c2)CC1)[C@H]1CCc2nc(N)sc2C1 [Compound 6, Trans-N-(4-(2-(((S)-2-amino-4,5,6,7-tetrahydrobenzo[d]thiazol-6-yl)(propyl)amino)ethyl)cyclohexyl)-2-naphthamide] | no detectable agonist activity at the D2 receptor | failed to induce changes in body temperature | – | – | – | – | good aqueous solubility | – | aqueous solubility (Aqueous solubility; dihydrochloride salt form): greater than 100 mg/ml
5 | CCCCN(CC[C@H]1CC[C@H](NC(=O)c2ccc3ccccc3c2)CC1)[C@H]1CCc2nc(N)sc2C1 [Compound 7, Trans-N-(4-(2-(((S)-2-amino-4,5,6,7-tetrahydrobenzo[d]thiazol-6-yl)(butyl)amino)ethyl)cyclohexyl)-2-naphthamide] | – | – | 5400 nM | – | >7,000 | 74 | – | 0.74 ± 0.083 nM | Ki (D2 receptor [3]; [7]): 55 ± 12 nM; Ki (D2 receptor [3]; [8]): 1300 ± 180 nM; less selectivity for the D3 receptor over the D2 receptor than compound 6 (D3 receptor; D2 high affinity binding component): ~10 fold
6 | CC(C)CCN(CC[C@H]1CC[C@H](NC(=O)c2ccc3ccccc3c2)CC1)[C@H]1CCc2nc(N)sc2C1 [Compound 8, Trans-N-(4-(2-(((S)-2-amino-4,5,6,7-tetrahydrobenzo[d]thiazol-6-yl)(isopentyl)amino)ethyl)cyclohexyl)-2-naphthamide] | – | – | 13000 nM | 345 ± 33 nM | >5,000 | 157 | – | 2.2 ± 0.1 nM | less potent than compound 6 to the D3 receptor (D3 receptor): 5 times
7 | Nc1nc2c(s1)C[C@@H](N(CCC1CCCCC1)CC[C@H]1CC[C@H](NC(=O)c3ccc4ccccc4c3)CC1)CC2 [Compound 9, Trans-N-(-4-(2-(((S)-2-amino-4,5,6,7-tetrahydrobenzo[d]thiazol-6-yl)(2-cyclohexylethyl)amino)ethyl)cyclohexyl)-2-naphthamide] | – | – | – | 1200 nM | – | – | – | 23 ± 2.7 nM | less potent than compound 6 to the D2 receptor (D2 receptor [3]; Ki compared with compound 6): 3 times
8 | Nc1nc2c(s1)C[C@@H](NCC[C@H]1CC[C@H](NC(=O)c3ccc4ccccc4c3)CC1)CC2 [Compound 10, Trans-N-(4-(2-((S)-2-amino-4,5,6,7-tetrahydrobenzo[d]thiazol-6-ylamino)ethyl)cyclohexyl)-2-naphthamide] | – | – | 64000 nM | 670 ± 140 nM | >8,000 | 88 | – | 7.6 nM | less potent than compound 6 to the D3 receptor (D3 receptor): 19 times
9 | CCCN(CC[C@H]1CC[C@H](NC(=O)c2cc3ccccc3o2)CC1)[C@H]1CCc2nc(N)sc2C1 [Compound 11, Trans-N-(4-(2-(((S)-2-amino-4,5,6,7-tetrahydrobenzo[d]thiazol-6-yl)(propyl)amino)ethyl)cyclohexyl)benzofuran-2-carboxamide] | – | – | – | 68 ± 4.6 nM | – | – | – | – | –
10 | CCCN(CC[C@H]1CC[C@H](NC(=O)C=Cc2ccccc2)CC1)[C@H]1CCc2nc(N)sc2C1 [Compound 12, Trans-N-(4-(2-(((S)-2-amino-4,5,6,7-tetrahydrobenzo[d]thiazol-6-yl)(propyl)amino)ethyl)cyclohexyl)cinnamamide] | no detectable agonist activity at the D2 receptor; also recorded: no detectable agonist or antagonist activity at the D2 receptor | failed to induce changes in body temperature | – | 330 ± 69 nM | – | – | good aqueous solubility | – | effect on induction of hypothermia by pramipexole (D2 receptor [5]): failed to alter the induction of hypothermia by pramipexole
